Entries after “also recorded” stand apart in the source; their conditions may differ.

Experiment [1] has as its system vascular lesion (abnormal vasculature) in brain tissue. The settings on record: ICG alone; general comparison statement; cited from earlier work.
For experiment [2], the system named is Grade 4 Atypical Teratoid Rhabdoid Tumor (ATRT) in the posterior fossa/brain stem. Description: Intraoperative NIR fluorescence imaging during pediatric brain tumor resection. In kind it is in vivo, human. The protocol:
This example describes use of the imaging system and/or method disclosed herein for coaxial illumination and visualization of tozuleristide fluorescence during surgical resection of a pediatric brain tumor. The imaging system of the present invention was used to image brain tissue to detect a cancer using fluorescence imaging. Surgery was performed to remove cancer from the subject.
Subject T613 was diagnosed with a Grade 4 Atypical Teratoid Rhabdoid Tumor (ATRT) in the posterior fossa/brain stem. Tozuleristide which is a peptide-fluorophore detectable agent (15 mg/m2 dose), was given by intravenous (IV) bolus injection about 13.5 hours prior to the start of surgery. The imaging system was attached to the Zeiss Pentero surgical microscope prior the start of surgery, and the microscope head and arm and the imaging system and proximal imaging cable were enclosed in the microscope manufacturer's standard sterile drape. The drape's cover glass was secured over the bottom window aperture of the imaging system.
After the tumor was exposed, the imaging platform was initialized and used continuously. The imaging platform enabled the surgeon to view fluorescence and visible imaging separately and together on the imaging station display, simultaneously with viewing the surgical site in visible light through the operating microscope's eyepieces. […] Moreover, there was no need to reposition the operating microscope to view the imaging platform's fluorescence and visible images, thus allowing normal imaging of the surgical area through the microscope's eyepieces together with the fluorescence imaging system during the operation, which decreased disruption to the surgical workflow.
Video was captured for the duration of the tumor resection, and still images were captured of the exposed tumor. […] FIGS. 15A-15F show images taken from the tumor resection with the near-infrared (NIR) fluorescence images of the tumor using the imaging system (FIGS. 15B and 15E) and the overlay image with the NIR or IR fluorescence overlaid with the white light or visible light spectrum illumination (FIGS. 15C and 15F). […] In the overlay image, the normal brain tissue appeared red, as it does under normal visible light or white light as shown the visible light images of the tumor ([…]). The surgeon noted that only tumor tissue appeared fluorescent.

In experiment [3] the test system is vascular lesion (abnormal vasculature) in brain tissue. Briefly: Intraoperative NIR fluorescence imaging during resection of a cerebral vascular lesion (arteriovenous or cavernous malformation). The settings on record: for Fluorescence in surrounding normal brain tissue and normal vasculature / Tozuleristide fluorescence in the abnormal vascular tissue / vascular lesion: pediatric subject, 22 mg IV approximately 5-6 hours before surgery and image collection, in situ. In kind it is in vivo, human. On the procedure: This example describes use of the imaging system and/or methods disclosed herein for coaxial illumination and visualization of tozuleristide fluorescence during surgical resection of an arteriovenous malformation or cavernous malformation in a pediatric patient. The imaging system of the present invention was used to image brain tissue to detect abnormal vasculature using fluorescence imaging. Surgery was performed to remove the abnormality from the subject.
A pediatric subject with a history of anosmia was found on MRI to have a 3.5 cm T1-hypointense, T2/FLAIR-hyperintense mass in the right middle frontal gyrus with a central enhancing nodule, initially diagnosed pre-operatively to be a low-grade glioma. […] The patient received 22 mg tozuleristide via IV injection approximately 5-6 hours before surgery and image collection. The imaging system head was attached to the Zeiss Pentero surgical microscope along with two eyepieces prior the start of surgery.
After the lesion was exposed, the imaging system was initialized and used continuously. The imaging system enabled the surgeon to view fluorescence and visible imaging together and simultaneously with the operating microscope. A microsurgical resection was performed through a right frontal craniotomy. […] The abnormal tissue was completely resected. The patient recovered without deficit. Pathology confirmed the absence of tumor.
Video was captured for the duration of the resection, and still images were captured of the exposed lesion. […] FIGS. 29A-I show images taken from the vascular lesion with the near-infrared (NIR) fluorescence images of the vascular lesion using the imaging system. […] In the overlay image, the normal brain tissue and normal blood vessels appeared pink or light tan to red, as it does under normal visible light or white light. The surgeon noted that only the abnormal vascular tissue appeared fluorescent.
FIGS. 29A-I show representative images of in situ or intra-operative tissue during surgery on a vascular lesion in a patient, wherein 22 mg of tozuleristide was administered to the human subject. […] Labeled arrows indicate non-fluorescent regions of normal blood vessels (“BV”) and normal brain tissue (“NB”). In contrast, fluorescence signal corresponding to lighter and brighter areas in the NIR or IR image, was indicative of the presence of tozuleristide on the abnormal vascular lesion (“VL”), and not in normal tissue. […] The arrows mark the same locations as shown in the NIR or IR image in FIG. 29E. […] Fluorescence in the vascular lesion (“VL”) clearly differentiated it from the surrounding normal tissues, including normal blood vessels (“BV”). […] Arrows indicate the vascular lesion (labeled “VL”) and adjacent normal brain (labeled “NB”), which is non-fluorescent. […] While the normal brain has a light tan to pink color (light gray in a gray scale image), it is perfused with normal blood vessels that can be differentiated from the vascular lesion by the absence of fluorescence.

Setting [4] is: Subject T613, 15 mg/m2 IV bolus about 13.5 hours prior to start of surgery, in situ.

With `CC1(C)C(/C=C/C=C/C=C/C=C2\N(CCCCS(=O)(=O)O)c3ccc4ccccc4c3C2(C)C)=[N+](CCCCS(=O)(=O)[O-])c2ccc3ccccc3c21` [ICG, indocyanine green], the “Blood vessel fluorescence after injection” value in experiment [1] is listed as “transiently lights up blood vessels immediately after injection”.

Tozuleristide: the “Surgeon's assessment of the distinction between tumor and normal tissue fluorescence” value in experiment [2] (NIR or IR fluorescence using the imaging system, compared with normal visible light) is “very good distinction between tumor and normal tissue fluorescence”. Further, in experiment [2] (setting [4]), the “Fluorescence in non-tumor brain tissue” value is “did not show any fluorescence” and the “Tozuleristide fluorescence in the exposed tumor (NIR or IR fluorescence image)” value was “observed in situ in the exposed tumor”. In addition, in experiment [2] (tumor resection, Subject T613), the “Histopathology of the fluorescent tissue samples” value was “confirmed to be viable tumor”. Further, the “Time after injection at which diseased tissue can be highlighted” value in experiment [3] (general statement, fluorescence dependent on pathological tissue binding and uptake) is recorded as “up to 30 hours”. For the same compound, in experiment [3], the “Fluorescence in surrounding normal brain tissue and normal vasculature” value is reported as “showed no fluorescence”; the “Tozuleristide fluorescence in the abnormal vascular tissue / vascular lesion” value is “indicative of the presence of tozuleristide in the vascular lesion; also recorded: fluoresced avidly”. For the same compound, in experiment [3] (listed as Tozuleristide), the “Fluorescence in surrounding normal brain tissue and normal vasculature” value is given as “no discernable background fluorescence”; the “Tozuleristide fluorescence in the abnormal vascular tissue / vascular lesion” value is “observed in situ in the exposed vascular lesion”. For the same compound, the “Histopathology of the fluorescent tissue samples” value in experiment [3] (vascular lesion resection) was “confirmed to be non-cancerous and vascular in nature”.

Values taken from patent US20240280490A1, “SYSTEMS AND METHODS FOR SIMULTANEOUS NEAR-INFRARED LIGHT AND VISIBLE LIGHT IMAGING” (priority 2020, published 2024).
